Tests used:
HL-60(TB) = assay: Cytotoxicity against human HL-60(TB) cells assessed as cell growth at 100 uM after 48 hrs by sulforhodamine B assay relative to control; type: functional; settings: HL-60, 48 h, read-out: Activity
UO-31 = assay: Cytotoxicity against human UO31 cells assessed as cell growth at 1 uM after 48 hrs by sulforhodamine B assay relative to control; type: functional; settings: UO-31, 48 h, read-out: Activity
OVCAR-8 = assay: Cytotoxicity against human OVCAR8 cells assessed as cell growth at 100 uM after 48 hrs by sulforhodamine B assay relative to control; type: functional; settings: OVCAR-8, 48 h, read-out: Activity
U-251 = assay: Cytotoxicity against human U251 cells assessed as cell growth at 100 uM after 48 hrs by sulforhodamine B assay relative to control; type: functional; settings: U-251, 48 h, read-out: Activity
SK-OV-3 = assay: Cytotoxicity against human SKOV3 cells assessed as cell growth at 10 uM after 48 hrs by sulforhodamine B assay relative to control; type: functional; settings: SK-OV-3, 48 h, read-out: Activity
UACC-257 [1] = assay: Cytotoxicity against human UACC257 cells assessed as cell growth at 100 uM after 48 hrs by sulforhodamine B assay relative to control; type: functional; settings: UACC-257, 48 h, read-out: Activity
NCI-H522 = assay: Cytotoxicity against human NCI-H522 cells assessed as cell growth at 0.01 uM after 48 hrs by sulforhodamine B assay relative to control; type: functional; settings: NCI-H522, 48 h, read-out: Activity
MDA-MB-231 = assay: Cytotoxicity against human MDA-MB-231 cells assessed as growth inhibition after 48 hrs by MTT assay; type: functional, cell-based; settings: MDA-MB-231, 48 h
SNB-19 = assay: Cytotoxicity against human SNB19 cells assessed as cell growth at 0.01 uM after 48 hrs by sulforhodamine B assay relative to control; type: functional; settings: SNB-19, 48 h, read-out: Activity
OVCAR-4 [2] = assay: Cytotoxicity against human OVCAR4 cells assessed as growth inhibition after 48 hrs by sulforhodamine B assay; type: functional; settings: OVCAR-4, 48 h
PC-3 = assay: Cytotoxicity against human PC3 cells assessed as growth inhibition after 48 hrs by sulforhodamine B assay; type: functional; settings: PC-3, 48 h
OVCAR-3 = assay: Cytotoxicity against human OVCAR3 cells assessed as cell growth at 0.01 uM after 48 hrs by sulforhodamine B assay relative to control; type: functional; settings: OVCAR-3, 48 h, read-out: Activity
TK-10 = assay: Cytotoxicity against human TK10 cells assessed as cell growth at 10 uM after 48 hrs by sulforhodamine B assay relative to control; type: functional; settings: TK-10, 48 h, read-out: Activity
K562 = assay: Cytotoxicity against human K562 cells assessed as cell growth at 10 uM after 48 hrs by sulforhodamine B assay relative to control; type: functional; settings: K562, 48 h, read-out: Activity
OVCAR-5 [3] = assay: Cytotoxicity against human OVCAR5 cells assessed as cell growth at 100 uM after 48 hrs by sulforhodamine B assay relative to control; type: functional; settings: OVCAR-5, 48 h, read-out: Activity
OVCAR-5 [4] = assay: Cytotoxicity against human OVCAR5 cells assessed as cell growth at 0.01 uM after 48 hrs by sulforhodamine B assay relative to control; type: functional; settings: OVCAR-5, 48 h, read-out: Activity
SN12C [5] = assay: Cytotoxicity against human SN12C cells assessed as cell growth at 1 uM after 48 hrs by sulforhodamine B assay relative to control; type: functional; settings: read-out: Activity
NCI-H322M = assay: Cytotoxicity against human NCI-H322M cells assessed as growth inhibition after 48 hrs by sulforhodamine B assay; type: functional
RXF 393 [6] = assay: Cytotoxicity against human RXF393 cells assessed as cell growth at 10 uM after 48 hrs by sulforhodamine B assay relative to control; type: functional; settings: RXF 393, 48 h, read-out: Activity
RXF 393 [7] = assay: Cytotoxicity against human RXF393 cells assessed as cell growth at 1 uM after 48 hrs by sulforhodamine B assay relative to control; type: functional; settings: RXF 393, 48 h, read-out: Activity
NCI/ADR-RES = assay: Cytotoxicity against human NCI/ADR-RES cells assessed as cell growth at 0.01 uM after 48 hrs by sulforhodamine B assay relative to control; type: functional; settings: read-out: Activity
COLO 205 = assay: Cytotoxicity against human COLO205 cells assessed as cell growth at 0.1 uM after 48 hrs by sulforhodamine B assay relative to control; type: functional; settings: COLO 205, 48 h, read-out: Activity
HT-29 = assay: Cytotoxicity against human HT-29 cells assessed as cell growth at 10 uM after 48 hrs by sulforhodamine B assay relative to control; type: functional; settings: HT-29, 48 h, read-out: Activity
OVCAR-4 [8] = assay: Cytotoxicity against human OVCAR4 cells assessed as cell growth at 100 uM after 48 hrs by sulforhodamine B assay relative to control; type: functional; settings: OVCAR-4, 48 h, read-out: Activity
NCI-H226 = assay: Cytotoxicity against human NCI-H226 cells assessed as growth inhibition after 48 hrs by sulforhodamine B assay; type: functional; settings: NCI-H226, 48 h
HCC 2998 = assay: Cytotoxicity against human HCC2998 cells assessed as cell growth at 0.1 uM after 48 hrs by sulforhodamine B assay relative to control; type: functional; settings: HCC 2998, 48 h, read-out: Activity
NCI-H460 = assay: Cytotoxicity against human NCI-H460 cells assessed as cell growth at 0.1 uM after 48 hrs by sulforhodamine B assay relative to control; type: functional; settings: NCI-H460, 48 h, read-out: Activity
SN12C [9] = assay: Cytotoxicity against human SN12C cells assessed as cell growth at 0.1 uM after 48 hrs by sulforhodamine B assay relative to control; type: functional; settings: read-out: Activity
NCI-H23 [10] = assay: Cytotoxicity against human NCI-H23 cells assessed as cell growth at 0.01 uM after 48 hrs by sulforhodamine B assay relative to control; type: functional; settings: NCI-H23, 48 h, read-out: Activity
MCF7 = assay: Cytotoxicity against human MCF7 cells assessed as cell growth at 1 uM after 48 hrs by sulforhodamine B assay relative to control; type: functional; settings: MCF7, 48 h, read-out: Activity
HCT-116 = assay: Cytotoxicity against human HCT116 cells assessed as growth inhibition after 48 hrs by sulforhodamine B assay; type: functional; settings: HCT-116, 48 h
NCI-H23 [11] = assay: Cytotoxicity against human NCI-H23 cells assessed as cell growth at 100 uM after 48 hrs by sulforhodamine B assay relative to control; type: functional; settings: NCI-H23, 48 h, read-out: Activity
UACC-257 [12] = assay: Cytotoxicity against human UACC257 cells assessed as cell growth at 1 uM after 48 hrs by sulforhodamine B assay relative to control; type: functional; settings: UACC-257, 48 h, read-out: Activity
MOLT-4 = assay: Cytotoxicity against human MOLT4 cells assessed as cell growth at 0.1 uM after 48 hrs by sulforhodamine B assay relative to control; type: functional; settings: MOLT-4, 48 h, read-out: Activity

## COc1cc(-c2cc(/C=C/C(=O)c3ccc(F)c(F)c3)[nH]n2)cc(OC)c1OC
HL-60(TB)
  growth at 100 µM: -49%
UO-31
  growth at 1 µM: 84%
OVCAR-8
  growth at 100 µM: -12%
U-251
  growth at 100 µM: -29%
SK-OV-3
  growth at 10 µM: 17%
UACC-257 [1]
  growth at 100 µM: -37%
NCI-H522
  growth at 0.01 µM: 96%
MDA-MB-231
  IC50: 1.5 µM
SNB-19
  growth at 0.01 µM: 89%
OVCAR-4 [2]
  LC50: > 100 µM
  TGI: 71.8 µM
PC-3
  LC50: > 100 µM
  TGI: 5.72 µM
OVCAR-3
  growth at 0.01 µM: 102%
TK-10
  growth at 10 µM: -13%
K562
  growth at 10 µM: 2%
OVCAR-5 [3]
  growth at 100 µM: -24%
OVCAR-5 [4]
  growth at 0.01 µM: 99%
SN12C [5]
  growth at 1 µM: 89%
NCI-H322M
  TGI: > 100 µM
NCI-H322M; read-out: LC50 (the source's name)
  CC50: > 100 µM
RXF 393 [6]
  growth at 10 µM: -20%
RXF 393 [7]
  growth at 1 µM: 82%
NCI/ADR-RES
  growth at 0.01 µM: 100%
COLO 205
  growth at 0.1 µM: 98%
HT-29
  growth at 10 µM: -24%
OVCAR-4 [8]
  growth at 100 µM: -3%
NCI-H226
  LC50 (concentration killing 50% of cells): 66 µM
  TGI: 15.8 µM
HCC 2998
  growth at 0.1 µM: 92%
NCI-H460
  growth at 0.1 µM: 102%
SN12C [9]
  growth at 0.1 µM: 94%
NCI-H23 [10]
  growth at 0.01 µM: 95%
MCF7
  growth at 1 µM: 99%
HCT-116
  LC50: 94.2 µM
  TGI: 13.9 µM
NCI-H23 [11]
  growth at 100 µM: -27%
UACC-257 [12]
  growth at 1 µM: 72%
MOLT-4
  growth at 0.1 µM: 106%

Reference: ChEMBL document CHEMBL4138123, “Design, synthesis and biological evaluation of novel pyrazolochalcones as potential modulators of PI3K/Akt/mTOR pathway and inducers of apoptosis in breast cancer cells” (Eur J Med Chem, 2017)
